# Measured values: PMC5954419 (Biochemistry, 2017)
# Target: T1, MGST1 (unactivated) (Rattus norvegicus, UniProt P08011)
# T1 sequence (P08011 2-155): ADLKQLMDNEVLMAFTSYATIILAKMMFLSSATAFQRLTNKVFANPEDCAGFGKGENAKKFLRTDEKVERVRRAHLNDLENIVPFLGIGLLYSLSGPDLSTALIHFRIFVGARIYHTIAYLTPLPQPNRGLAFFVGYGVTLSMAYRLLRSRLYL
# Assay: steady-state spectrophotometric product formation
# Type: biochemical
# Conditions: 5 mM GSH, 5 °C, pH 6.5, 0.1 M potassium phosphate, 0.1% Triton X-100; unactivated enzyme
compound,measurement,value
"O=[N+]([O-])c1ccc(Cl)c([N+](=O)[O-])c1 [CDNB, 1-Chloro-2,4-dinitrobenzene]",Km,11 ± 2 µM
